What was measured:
14-3-3σ/ERα [1] = biological target: T1, 14-3-3σ/ERα (Homo sapiens, UniProt P03372+P31947); experiment: Mass spectrometry dose response, compound binding to 14-3-3σ in the presence of ERα phosphopeptide; conditions: 100 nM compound, 100 nM 14-3-3σ, ERα-peptide 2 µM
T1 construct: The 14-3-3 σ isoform (full-length for mass spectrometry and fluorescence anisotropy assays, ΔC for crystallography); made in house; host or cells: E. coli Rosetta 2(DE3)pLysS, pPROEX HTb vector
Excerpt: (§1) Two orthogonal assays were developed for screening. For the primary assay, mass spectrometry (MS) was used to monitor the formation of the covalent bond between the compound and the native cysteine (Cys38 on 14-3-3σ) (Figure 1D). The assay was first performed in the absence of peptide to determine binding to 14-3-3σ only (apo screening, D1) and then in the presence of both 14-3-3σ and the peptide as an indication of how much the peptide stabilized compound binding (D2). […] As a secondary assay, fluorescence anisotropy (FA) was used. In this case, compounds were titrated to mixtures of 14-3-3σ and FAM-labeled peptides. […] Thus, the two assays are highly complementary; the MS assay reports on compound binding and the FA assay reports on peptide binding. […]
(§2) Mass spectrometry dose response assays were performed on a Waters Acquity UPLC/ Xevo G2-XS Q-Tof mass spectrometer. A Waters UPLC Protein BEH-C4 Column (300 Å, 1.7 μm, 2.1 mm x 50 mm) was used to desalt the samples prior to application on the mass spectrometer. For 19-point MS dose responses, 50 mM compound stocks in DMSO were serially diluted in 3-fold increment in a master plate, then 1000 nl of the compounds were transferred in the assay plates. Master mixes containing 100 nM full-length wild type 14-3-3σ in the absence or presence of […]
(§3) Assay buffer was TRIS (10 mM, pH 8.0) and final volume per well was 50 μl, with final top concentration of compounds dose response series at 1 mM. The reaction mixtures were incubated for 1h at rt before subjected to MS. Four measurements (1h, 8h, 16h, 24h) were performed for time-course experiments. The injection volume for each sample was 6 μl. 24 μl of sample were needed for the time-course experiments, so the total volume in the assay plate was adjusted to 50 μl, to account for the dead volume in the injections. Data collection and automated processing followed a custom workflow, as previously described.1 z Plots were created using GraphPad Prism with the log(agonist) vs. response (variable slope, four parameters) fitting model. […]

14-3-3σ/C-RAF [2] = biological target: T2, 14-3-3σ/C-RAF (Homo sapiens, UniProt P31947); experiment: Mass spectrometry dose response, compound binding to 14-3-3σ in the presence of C-RAF phosphopeptide; conditions: 100 nM compound, 100 nM 14-3-3σ, C-RAF peptide 18 µM
T2 construct: The 14-3-3 σ isoform (full-length for mass spectrometry and fluorescence anisotropy assays, ΔC for crystallography); made in house; host or cells: E. coli Rosetta 2(DE3)pLysS, pPROEX HTb vector
T2 sequence (P31947 1-248): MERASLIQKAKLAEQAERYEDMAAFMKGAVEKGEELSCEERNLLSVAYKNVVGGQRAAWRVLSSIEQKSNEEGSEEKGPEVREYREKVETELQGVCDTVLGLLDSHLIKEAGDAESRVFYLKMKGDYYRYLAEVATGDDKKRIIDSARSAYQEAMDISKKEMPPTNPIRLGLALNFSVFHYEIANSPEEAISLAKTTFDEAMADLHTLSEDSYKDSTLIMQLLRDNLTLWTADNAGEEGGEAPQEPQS
Excerpt: as §1, §2, §3

14-3-3σ = biological target: T3, 14-3-3σ (Homo sapiens, UniProt P31947); experiment: Mass spectrometry dose response, compound binding to 14-3-3σ in the absence of peptide (apo); conditions: 100 nM compound, 100 nM 14-3-3σ
T3 construct: The 14-3-3 σ isoform (full-length for mass spectrometry and fluorescence anisotropy assays, ΔC for crystallography); made in house; host or cells: E. coli Rosetta 2(DE3)pLysS, pPROEX HTb vector
T3 sequence (P31947 1-248): T2 sequence (P31947 1-248)
Excerpt: as §1, §2, §3

14-3-3σ/C-RAF [3] = biological target: T2, 14-3-3σ/C-RAF; experiment: Fluorescence anisotropy compound titration, FAM-labeled C-RAF peptide; format: binding; conditions: 10 nM C-RAF-FAM labeled peptide, 5 µM 14-3-3σ, overnight incubation; read-out: EC50 value C-RAF (FA compound titration)
Excerpt: as §1
(§4) diluted in buffer (10 mM HEPES, pH 7.5, 150 mM NaCl, 0.1% Tween20, 1 mg/mL Bovine Serum Albumin (BSA; Sigma-Aldrich). Final DMSO in the assay was always 1%. Dilution series of 14-3-3 proteins or compounds were made in […]
(§5) Compound titrations were made by titrating the compound in a 2-fold dilution series (starting at 500 or 1000 µM) to a mix of fluorescein-labeled peptide (10 nM) and 14-3-3σ (concentration at approximately the EC20 to EC30 value of the protein-peptide complex; 1 µM for ERα and 5 µM for C-RAF). Using the ~EC25 value makes the assay sensitive for measuring an increase in PPI formation. Fluorescence anisotropy measurements were performed directly and after overnight incubation at room temperature. […]
(§6) Wells containing only FAM-peptide were used to set as G-factor at 35 mP. Data reported are at endpoint. EC50 and apparent Kd values were obtained from fitting the data with a four-parameter logistic model (4PL) in GraphPad Prism 7 for Windows. Data was obtained and averaged based on either three (compound titrations) or two (protein titrations) independent experiments.

14-3-3σ/ERα [4] = biological target: T1, 14-3-3σ/ERα; experiment: Fluorescence anisotropy compound titration, FAM-labeled ERα peptide; format: binding; conditions: 10 nM ERα-FAM labeled peptide, 1 µM 14-3-3σ, overnight incubation (24 h); read-out: EC50 value ERα (FA compound titration)
Excerpt: as §1, §4, §5, §6

Compound	Percentage (%) bound of compound to 14-3-3σ, ERα 1h (14-3-3σ/ERα [1]) [%]	Percentage (%) bound of compound to 14-3-3σ, ERα 8h (14-3-3σ/ERα [1]) [%]	Percentage (%) bound of compound to 14-3-3σ, ERα 16h (14-3-3σ/ERα [1]) [%]	Percentage (%) bound of compound to 14-3-3σ, ERα 24h (14-3-3σ/ERα [1]) [%]	Percentage (%) bound of compound to 14-3-3σ, CRAF 1h (14-3-3σ/C-RAF [2]) [%]	Percentage (%) bound of compound to 14-3-3σ, CRAF 8h (14-3-3σ/C-RAF [2]) [%]	Percentage (%) bound of compound to 14-3-3σ, CRAF 24h (14-3-3σ/C-RAF [2]; 24h) [%]	Percentage (%) bound of compound to 14-3-3σ, CRAF 24h (14-3-3σ/C-RAF [2]; head prints 24h) [%]	Percentage (%) bound of compound to 14-3-3σ, APO 1h (14-3-3σ) [%]	Percentage (%) bound of compound to 14-3-3σ, APO 8h (14-3-3σ) [%]	Percentage (%) bound of compound to 14-3-3σ, APO 16h (14-3-3σ) [%]	Percentage (%) bound of compound to 14-3-3σ, APO 24h (14-3-3σ) [%]	EC50 (14-3-3σ/C-RAF [3]) [µM]	EC50 (14-3-3σ/ERα [4]) [µM]
CC(C)(Oc1ccc(Cl)cc1)C(=O)N1CCC(NC(=O)CCl)CC1 [compound 26]	0	0	0	1.8	0.0	1.0	4.3	2.6	0	0	0	0	> 150	> 150
CC(C)(Oc1ccc(Cl)cc1)C(=O)N1CCC(CNC(=O)CCl)CC1 [compound 27]	1.4	6.4	14.6	30.6	4.1	10.6	28.3	19.2	0.0	1.0	1.4	2.0	16 ± 4	19 ± 1
CC(C)(Oc1ccc(Cl)cc1)C(=O)N1CCC(CCNC(=O)CCl)CC1 [compound 28]	0.3	1.5	4.2	10.9	3.1	7.5	40.1	22.1	1.0	1.0	1.9	1.9	40 ± 1	24 ± 16
CC(C)(Oc1ccc(Cl)cc1)C(=O)N1CCC(CCCNC(=O)CCl)CC1 [compound 29]	0.4	1.0	3.1	11.0	1.0	1.0	18.9	7.1	0	0	0	0	142 ± 40	9 ± 0.4
CC(C)(Nc1ccc(Cl)cc1)C(=O)N1CCC(CNC(=O)CCl)CC1 [compound 84]	0.9	2.8	7.5	19.0	0.8	1.0	3.3	2.9	0	0	1.0	5.8	> 150	55 ± 2
O=C(CCl)NCC1CCN(C(=O)C2(Oc3ccc(Cl)cc3)CC2)CC1 [compound 93]	0	0.9	1.1	1.7	0.1	0.1	2.3	0.1	0	0	0	0	> 150	68 ± 2
O=C(CCl)NCC1CCN(C(=O)C2(Nc3ccc(Cl)cc3)CC2)CC1 [compound 97]	1.0	2.5	5.8	21.3	1.0	1.7	5.5	5.1	0.3	0.4	0.8	5.9	101 ± 15	15 ± 1
O=C(CCl)NCCCC1CCN(C(=O)C2(Nc3ccc(Cl)cc3)CCNCC2)CC1 [compound 153]	23.1	44.7	76.1	88.8	0	0	0	0	4.7	7.4	7.8	8.0		16 ± 1
O=C(CCl)CCC1CCN(C(=O)C2(Nc3ccc(Cl)cc3)CCOCC2)CC1 [compound 156]	81.1	97.0	100	100	54.7	62.3	99.4	92.0	18.0	35.7	70.7	95.1		5 ± 0.3

Source: PMC10515640, “Structure-Based Optimization of Covalent, Small-Molecule Stabilizers of the 14-3-3σ/ERα Protein–Protein Interaction from Nonselective Fragments” (Journal of the American Chemical Society, 2023)
